We go through 18 molecules from ChEMBL document CHEMBL3991601, “The target landscape of clinical kinase drugs” (Science, 2017).

The target in test [1] is Tyrosine-protein kinase ABL2 (Homo sapiens, UniProt P42684).
The target of test [2] is T1, Acyl-CoA dehydrogenase family member 10 (Homo sapiens, UniProt Q6JQN1).
T1 sequence (Q6JQN1 whole entry): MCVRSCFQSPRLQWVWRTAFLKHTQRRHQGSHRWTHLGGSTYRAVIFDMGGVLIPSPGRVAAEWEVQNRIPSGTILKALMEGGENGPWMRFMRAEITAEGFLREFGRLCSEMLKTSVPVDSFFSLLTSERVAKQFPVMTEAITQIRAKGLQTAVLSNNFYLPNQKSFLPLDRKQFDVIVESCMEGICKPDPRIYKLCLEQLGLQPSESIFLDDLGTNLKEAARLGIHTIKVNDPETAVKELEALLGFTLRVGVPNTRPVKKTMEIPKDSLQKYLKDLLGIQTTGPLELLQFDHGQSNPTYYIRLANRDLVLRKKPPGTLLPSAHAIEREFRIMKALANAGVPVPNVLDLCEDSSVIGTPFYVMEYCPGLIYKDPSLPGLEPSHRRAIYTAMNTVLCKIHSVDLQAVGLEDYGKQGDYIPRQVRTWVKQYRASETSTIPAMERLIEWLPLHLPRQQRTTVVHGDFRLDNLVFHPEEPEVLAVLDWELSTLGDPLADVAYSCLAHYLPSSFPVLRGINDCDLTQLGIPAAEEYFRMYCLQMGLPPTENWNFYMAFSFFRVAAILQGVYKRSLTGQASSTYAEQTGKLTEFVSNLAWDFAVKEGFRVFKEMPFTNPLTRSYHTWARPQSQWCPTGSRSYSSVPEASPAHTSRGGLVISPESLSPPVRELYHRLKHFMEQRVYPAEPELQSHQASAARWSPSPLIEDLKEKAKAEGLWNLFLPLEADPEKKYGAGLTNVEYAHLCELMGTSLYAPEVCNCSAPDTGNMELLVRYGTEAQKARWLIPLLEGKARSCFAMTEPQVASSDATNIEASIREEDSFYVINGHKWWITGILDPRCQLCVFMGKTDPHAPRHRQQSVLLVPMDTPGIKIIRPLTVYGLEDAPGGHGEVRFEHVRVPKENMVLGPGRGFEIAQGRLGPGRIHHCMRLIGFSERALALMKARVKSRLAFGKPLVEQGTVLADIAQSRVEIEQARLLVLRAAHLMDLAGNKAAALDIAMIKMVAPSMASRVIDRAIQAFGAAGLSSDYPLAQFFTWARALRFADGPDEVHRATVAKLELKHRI

The target of test [3] is Atypical kinase COQ8A, mitochondrial (Homo sapiens, UniProt Q8NI60).
In test [4] the target is Mitogen-activated protein kinase 1 (Homo sapiens, UniProt P28482).
The target of test [5] is Serine/threonine-protein kinase pim-1 (Homo sapiens, UniProt P11309).
Test [6] addresses T2, Serine/threonine-protein kinase ULK1 (Homo sapiens, UniProt O75385).
T2 sequence (O75385 whole entry): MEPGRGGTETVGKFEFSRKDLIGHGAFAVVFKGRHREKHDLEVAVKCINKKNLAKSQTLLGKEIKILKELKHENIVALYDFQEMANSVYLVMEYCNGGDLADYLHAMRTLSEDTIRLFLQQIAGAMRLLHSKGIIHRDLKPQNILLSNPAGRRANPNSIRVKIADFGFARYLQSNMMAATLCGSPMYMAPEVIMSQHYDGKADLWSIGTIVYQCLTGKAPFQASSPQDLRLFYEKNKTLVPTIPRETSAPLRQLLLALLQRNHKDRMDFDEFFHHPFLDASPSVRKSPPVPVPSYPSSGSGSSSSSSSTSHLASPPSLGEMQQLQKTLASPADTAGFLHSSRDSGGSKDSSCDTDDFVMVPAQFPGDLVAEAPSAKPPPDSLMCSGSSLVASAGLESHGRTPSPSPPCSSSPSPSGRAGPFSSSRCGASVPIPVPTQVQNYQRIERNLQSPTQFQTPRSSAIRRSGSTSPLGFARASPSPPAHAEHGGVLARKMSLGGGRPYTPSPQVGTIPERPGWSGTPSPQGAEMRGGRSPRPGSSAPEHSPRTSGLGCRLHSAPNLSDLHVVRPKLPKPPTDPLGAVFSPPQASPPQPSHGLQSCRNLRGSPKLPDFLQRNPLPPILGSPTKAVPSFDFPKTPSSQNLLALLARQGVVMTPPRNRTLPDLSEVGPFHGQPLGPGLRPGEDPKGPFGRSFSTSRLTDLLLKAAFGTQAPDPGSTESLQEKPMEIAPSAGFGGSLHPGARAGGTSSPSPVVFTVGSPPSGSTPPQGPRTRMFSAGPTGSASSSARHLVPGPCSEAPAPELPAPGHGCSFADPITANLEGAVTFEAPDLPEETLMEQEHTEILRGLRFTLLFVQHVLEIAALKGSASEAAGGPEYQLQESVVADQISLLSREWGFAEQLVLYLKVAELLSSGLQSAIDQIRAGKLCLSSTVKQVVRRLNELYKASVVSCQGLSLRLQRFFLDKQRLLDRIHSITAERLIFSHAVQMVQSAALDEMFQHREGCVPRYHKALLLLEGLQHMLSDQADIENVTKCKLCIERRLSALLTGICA

The structures appear in SMILES notation. Where a name gives a salt, the structure may show the parent alone. Activity calls are given as the source filed them. Where only a bound is given, the exact number is not on record here.
Further: in the data inactive means no Kd found up to 30 µM.

Sequence of Atypical kinase COQ8A, mitochondrial (Q8NI60 whole entry): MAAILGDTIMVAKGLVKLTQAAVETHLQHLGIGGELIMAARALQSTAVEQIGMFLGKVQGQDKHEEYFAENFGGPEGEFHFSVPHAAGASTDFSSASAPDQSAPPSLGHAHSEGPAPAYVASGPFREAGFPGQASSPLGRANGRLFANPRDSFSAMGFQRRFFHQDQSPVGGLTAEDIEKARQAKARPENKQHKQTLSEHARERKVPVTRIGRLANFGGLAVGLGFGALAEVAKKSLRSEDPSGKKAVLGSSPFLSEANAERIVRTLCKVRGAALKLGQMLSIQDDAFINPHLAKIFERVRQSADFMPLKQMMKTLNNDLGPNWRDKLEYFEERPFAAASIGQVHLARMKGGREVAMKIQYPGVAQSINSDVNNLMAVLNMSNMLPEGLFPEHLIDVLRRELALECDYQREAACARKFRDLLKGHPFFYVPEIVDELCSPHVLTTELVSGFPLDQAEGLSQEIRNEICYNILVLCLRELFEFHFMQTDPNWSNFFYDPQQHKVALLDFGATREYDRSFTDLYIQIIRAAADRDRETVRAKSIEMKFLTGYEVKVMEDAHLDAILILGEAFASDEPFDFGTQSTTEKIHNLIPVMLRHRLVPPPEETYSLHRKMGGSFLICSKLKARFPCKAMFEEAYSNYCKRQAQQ
Sequence of Tyrosine-protein kinase ABL2 (P42684 whole entry): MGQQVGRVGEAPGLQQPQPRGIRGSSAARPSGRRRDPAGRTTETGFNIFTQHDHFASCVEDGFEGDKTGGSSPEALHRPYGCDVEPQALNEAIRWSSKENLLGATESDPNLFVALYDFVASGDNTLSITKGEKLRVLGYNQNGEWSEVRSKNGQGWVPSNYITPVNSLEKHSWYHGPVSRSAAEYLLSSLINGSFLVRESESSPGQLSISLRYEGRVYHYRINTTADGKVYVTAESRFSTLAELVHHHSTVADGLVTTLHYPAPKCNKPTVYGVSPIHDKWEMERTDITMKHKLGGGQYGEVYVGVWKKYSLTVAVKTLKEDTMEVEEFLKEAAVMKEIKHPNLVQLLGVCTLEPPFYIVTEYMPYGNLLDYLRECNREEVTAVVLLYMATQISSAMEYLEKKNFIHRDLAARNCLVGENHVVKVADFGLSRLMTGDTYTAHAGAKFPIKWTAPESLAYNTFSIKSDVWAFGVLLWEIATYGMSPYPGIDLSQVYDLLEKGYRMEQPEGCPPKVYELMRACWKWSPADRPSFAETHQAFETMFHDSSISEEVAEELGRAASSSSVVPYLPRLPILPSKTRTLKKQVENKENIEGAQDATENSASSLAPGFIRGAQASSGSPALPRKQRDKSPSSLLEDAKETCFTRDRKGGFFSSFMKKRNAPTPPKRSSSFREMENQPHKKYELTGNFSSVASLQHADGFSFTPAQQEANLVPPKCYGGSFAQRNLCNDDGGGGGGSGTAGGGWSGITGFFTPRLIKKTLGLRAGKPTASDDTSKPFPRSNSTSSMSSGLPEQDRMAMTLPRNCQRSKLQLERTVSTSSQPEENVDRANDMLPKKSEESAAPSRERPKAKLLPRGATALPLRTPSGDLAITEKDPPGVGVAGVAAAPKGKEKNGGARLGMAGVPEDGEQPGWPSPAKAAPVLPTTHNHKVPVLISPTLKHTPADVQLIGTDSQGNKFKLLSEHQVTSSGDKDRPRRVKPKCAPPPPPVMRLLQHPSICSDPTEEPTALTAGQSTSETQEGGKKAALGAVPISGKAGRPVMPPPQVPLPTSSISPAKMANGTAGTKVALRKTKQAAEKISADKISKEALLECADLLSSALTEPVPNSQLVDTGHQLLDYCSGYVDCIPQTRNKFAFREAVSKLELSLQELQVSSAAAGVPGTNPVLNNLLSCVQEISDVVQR
Sequence of Serine/threonine-protein kinase pim-1 (P11309 whole entry): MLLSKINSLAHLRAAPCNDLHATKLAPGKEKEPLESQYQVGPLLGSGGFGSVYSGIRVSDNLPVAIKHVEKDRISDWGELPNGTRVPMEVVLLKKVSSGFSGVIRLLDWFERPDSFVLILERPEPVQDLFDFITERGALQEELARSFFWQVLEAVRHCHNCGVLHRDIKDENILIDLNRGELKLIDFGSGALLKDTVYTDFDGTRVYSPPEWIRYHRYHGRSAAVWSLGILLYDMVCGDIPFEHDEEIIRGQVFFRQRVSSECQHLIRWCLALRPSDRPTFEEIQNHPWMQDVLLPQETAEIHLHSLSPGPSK
Sequence of Mitogen-activated protein kinase 1 (P28482 whole entry): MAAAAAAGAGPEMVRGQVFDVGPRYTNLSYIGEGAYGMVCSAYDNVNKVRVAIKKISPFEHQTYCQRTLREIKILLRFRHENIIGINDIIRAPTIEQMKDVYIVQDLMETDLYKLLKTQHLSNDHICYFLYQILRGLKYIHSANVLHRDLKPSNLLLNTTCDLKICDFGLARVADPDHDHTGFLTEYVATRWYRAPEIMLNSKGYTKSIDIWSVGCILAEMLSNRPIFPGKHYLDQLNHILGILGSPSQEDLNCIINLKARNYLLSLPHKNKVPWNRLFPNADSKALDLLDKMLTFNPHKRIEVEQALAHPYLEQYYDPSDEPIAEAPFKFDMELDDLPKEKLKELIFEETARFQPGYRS

`C[C@@H](Oc1cc(C(=O)Nc2ccc(C(=O)N3CCN(C)CC3)cc2)nnc1N)c1c(Cl)ccc(F)c1Cl`: the Kd in test [1], in test [2], in test [3], in test [4], in test [5] and in test [6] was > 30 µM (inactive) throughout.

Regarding `C[C@H]1CNCCCN1S(=O)(=O)c1cccc2cncc(F)c12`, the Kd in test [1], in test [2], in test [3], in test [4], in test [5] and in test [6] was > 30 µM (inactive) throughout.

As for `CCNC(=O)C#Cc1ccc2c(c1)NC(=O)/C2=C(\Nc1ccc(CN(C)C)cc1)c1ccccc1`, the Kd (commonly a measure of binding affinity in units of concentration) in test [1] was 1.48 µM (active); in test [2], > 30 µM (inactive); in test [3], > 30 µM (inactive); in test [4] it was > 30 µM (inactive); in test [5], > 30 µM (inactive); in test [6] it was > 30 µM (inactive).

As to `C=CC(=O)N1CCC[C@H](n2c(=O)n(-c3ccc(Oc4ccccc4)cc3)c3c(N)ncnc32)C1`, the Kd in test [1], in test [2], in test [3], in test [4], in test [5] and in test [6] was > 30 µM (inactive) throughout.

With `Cc1nc2cc(-c3nn(C(C)C)c4ncnc(N)c34)ccc2o1`, the Kd in test [1], in test [2], in test [3], in test [4], in test [5] and in test [6] was > 30 µM (inactive) throughout.

For the molecule `Nc1ncnc2c1c(-c1cccc(OCc3ccccc3)c1)cn2[C@H]1C[C@@H](CN2CCC2)C1` [AEW-541], the Kd in test [1] was > 30 µM (inactive); in test [2], > 30 µM (inactive); in test [3] it was 0.835 µM (active); in test [4] it was > 30 µM (inactive); in test [5] it was > 30 µM (inactive); in test [6], > 30 µM (inactive).

For `Cc1nc(NC(=O)N2CCC[C@H]2C(N)=O)sc1-c1ccnc(C(C)(C)C(F)(F)F)c1` [ALPELISIB], the Kd in test [1], in test [2], in test [3], in test [4], in test [5] and in test [6] was > 30 µM (inactive) each time.

On to `Cc1csc(-c2nnc(Nc3ccc(Oc4ncccc4-c4ccnc(N)n4)cc3)c3ccccc23)c1` [AMG-900], for which the Kd is > 30 µM (inactive) in test [1]; > 30 µM (inactive) in test [2]; > 30 µM (inactive) in test [3]; > 30 µM (inactive) in test [4]; > 30 µM (inactive) in test [5]; 0.19 µM (active) in test [6].

For the molecule `C=CC(=O)Nc1cc2c(Nc3ccc(F)c(Cl)c3)ncnc2cc1C#CC(C)(C)N1CCN(C)CC1` [AV-412 FREE BASE], the Kd in test [1], in test [2], in test [3], in test [4], in test [5] and in test [6] was > 30 µM (inactive) each time.

Turning to `NC(=O)Nc1cc(-c2cccc(F)c2)sc1C(=O)N[C@H]1CCCNC1` [AZD-7762], the Kd in test [1] was 0.899 µM (active); in test [2], > 30 µM (inactive); in test [3], > 30 µM (inactive); in test [4], > 30 µM (inactive); in test [5], > 30 µM (inactive); in test [6], 0.115 µM (active).

As to `Cn1cnc2c(F)c(Nc3ccc(Br)cc3F)c(C(=O)NOCCO)cc21` [BINIMETINIB], the Kd in test [1], in test [2], in test [3], in test [4], in test [5] and in test [6] was > 30 µM (inactive) throughout.

For the molecule `CCn1c(C(=O)N(C2CC2)C2CC2)cc2c3c(ncn3C)c(Nc3cc(C)n(C)n3)nc21` [BMS-911543], the Kd in test [1], in test [2], in test [3], in test [4], in test [5] and in test [6] was > 30 µM (inactive) in each case.

Turning to `COc1cc2ncnc(Oc3cccc(NC(=O)Nc4cc(C(C)(C)C(F)(F)F)on4)c3)c2cc1OC` [CEP-32496], the Kd in test [1] is 0.03 µM (active); in test [2] it was > 30 µM (inactive); in test [3] it was > 30 µM (inactive); in test [4], > 30 µM (inactive); in test [5], > 30 µM (inactive); in test [6], > 30 µM (inactive).

Turning to `Cc1cc(Nc2ncc(Cl)c(Nc3ccccc3S(=O)(=O)C(C)C)n2)c(OC(C)C)cc1C1CCNCC1` [CERITINIB], the Kd in test [1], in test [2], in test [3], in test [4], in test [5] and in test [6] was > 30 µM (inactive) in each case.

As to `COc1c(OCCCN2CCOCC2)ccc2c1N=C(NC(=O)c1cnc(N)nc1)N1CCN=C21` [COPANLISIB], the Kd in test [1], in test [2], in test [3], in test [4], in test [5] and in test [6] was > 30 µM (inactive) throughout.

`COCC(=O)NC/C=C/c1ccc2ncnc(Nc3ccc(Oc4ccc(C)nc4)c(C)c3)c2c1` [CP-724714]: the Kd in test [1], in test [2], in test [3], in test [4], in test [5] and in test [6] was > 30 µM (inactive) throughout.

For `C#Cc1cccc(Nc2ncnc3cc(OC)c(OCCCCCCC(=O)NO)cc23)c1` [CUDC-101], the Kd in test [1], in test [2], in test [3], in test [4], in test [5] and in test [6] was > 30 µM (inactive) throughout.

`CCS(=O)(=O)N1CCN(c2ccc(Nc3ncc(C(N)=O)c(NC4CC4)n3)cc2)CC1` [Cerdulatinib Hydrochloride]: the Kd in test [1] was > 30 µM (inactive); in test [2], > 30 µM (inactive); in test [3], > 30 µM (inactive); in test [4] it was > 30 µM (inactive); in test [5] it was > 30 µM (inactive); in test [6] it was 2.82 µM.
